The subject of series [1] is astrocytes. In words: Lethality of individual metabolites for astrocytes in serum-free base medium. In kind it is cell-based, mouse. The settings on record: millimolar (high) concentrations. As for the experimental part:
The cocktail customization was performed in primary cultures of mature astrocytes, between the second and the fourth passage. Those cells were maintained at least 8 days in culture before passaging. We corroborated the expression of Gfap before starting the experiment by immunocytochemistry (FIG. 1G). We tested individual metabolites at different concentrations in a serum-free medium (base media, BM). BM contained equivalent volumes of DMEM-F12 and Neurobasal, plus the supplements N2 and B27 at 1X. Notes about specific molecules added. S-adenosylmethionine (SAM) at millimolar concentrations was lethal for astrocytes, which is in line with the lower physiological concentrations usually found for this metabolite compared to others. Cysteine is high-sensitive to oxidation, which is manifested as white flake precipitation, a high-concentrated stock solution [2500mM] dissolved in ddH2O with pH slightly acid (5.5-6) was prepared to prevent this issue. We corroborated a pH always close to 7.4 in the cells maintained in vitro, before and after treating them with cocktails containing the diluted solution of cysteine.

Series [2] deals with primary cultures of mature astrocytes. The experiment in a line: Customization of C1-MIM concentrations: relative gene expression (Gfap, Cd44) by rtPCR in mature astrocytes. In kind it is cell-based, mouse. As for the experimental part: Astrocytes were derived from cortical tissues postnatal or differentiated from dissociated neurospheres after a second or third passage, as described herein. For postnatal astrocytes, cortices were isolated from P4 mice pups to get single cells and were plated as described by Schildge et al.^51Confluent cultures were sorted with Anti-GLAST (ACSA-1) Microbead kit according to manufacturer instructions. For inducing differentiation from NSCs, single cells derived from neurospheres were exposed to astrocyte media. In both cases, cells were plated over pre-treated Poly-L-Lysine plates or Poly-D-Lysine glass-coverslips using Astrocyte Differentiation Medium (DMEM-F12, 10% heat-inactivated FBS, lx B27, and 1X Glutamax).
Cell cultures seeded on adherent conditions were kept on their respective differentiation media until they reach a mature phenotype (defined by the expression of markers specific to each cell type). When cultures reached around 80-90% confluence, the differentiation media was removed, cells were washed twice with PBS and the media was replaced with CI-MIM. The composition of C1-MIM includes up to 6 metabolites (details of the combinations used are specified in figure legends) including Methionine, Threonine, Glycine, Putrescine, Cysteine [5mM], and S-adenosylmethionine [0.05mM], which are dissolved in a base medium (BM) composed by DMEM-F12 plus Neurobasal [1:1], supplemented with 1X B27, 1X N2. […] In all cases, from the same batch of each cell culture, a control culture was also washed with PBS but maintained with their own differentiation media along all the time of the treatment. Cells in this schema were fed every other day. Cells were monitored daily to attest to the change in morphology. Cells were collected on the fifth day or earlier after starting the MIM treatment (indicated in each specific case in the figure legend) for further analyses, as indicated in the figure legends of each experimental approach. Viability of cultures at the time of collection was measured by trypan blue, and all cases above 85% viable cells were processed for downstream analyses.
Total RNA was isolated from cells grown on Petri dish at the indicated time points, using the RNeasy Plus Mini kit QIAGEN, according to the manufacturer's protocol, including a DNA-removal step with DNAseI. Amount and purity of RNA were assessed using a NanoDrop spectrophotometer (Nanodrop Technologies); at least 500 ng of total RNA was used to synthesize cDNA by reverse transcription, using Maxima™ H
Minus cDNA Synthesis Master Mix. 2.5-10 ng of cDNA was used in the following qPCR performed on a CFX384 thermal cycler (Bio-Rad) using the SsoAdvanced™ Universal SYBR® Green Supermix. Results were normalized to at 193 least one reference genes β-Actin, RPL38, GAPDH, Gus, CTCF, and Natl, specified per figure), selected for their highest stability among a pool of common housekeeping genes. Primers were designed by NCBI/Primer-BLAST primers designing tool (Table 1). Statistical analysis of the results was performed using the 2ACt method^s. Results were expressed relative to the expression values of the experimental control.
The cocktail customization was performed in primary cultures of mature astrocytes, between the second and the fourth passage. Those cells were maintained at least 8 days in culture before passaging. […] We tested individual metabolites at different concentrations in a serum-free medium (base media, BM). […]

Entries after “also recorded” stand apart in the source; their conditions may differ.

`C[S+](CC[C@H](N)C(=O)[O-])C[C@H]1O[C@@H](n2cnc3c(N)ncnc32)[C@H](O)[C@@H]1O` (stereo partly shown) [S-adenosylmethionine]: the “lethality / toxicity for astrocytes” value is “lethal; also recorded: toxic” in series [1] and “lethal” in series [1] (listed as SAM). Take `N[C@@H](CS)C(=O)O` [cysteine]: the Gfap expression result in series [2] (individual metabolite, range of concentrations (0.025 to 10mM)) is “potentiates”. Consider `NCCCCN` [putrescine], for which, in series [2] (separate metabolite at 1mM), the Gfap expression result is listed as “repressed”.

`C[C@@H](O)[C@H](N)C(=O)O` [threonine]: the Gfap expression entry in series [2] (separate metabolite at 1mM) is recorded as “repressed”. Turning to “FGF2: growth factor added to improve cell survival in serum-free medium [reference compound]”, the Gfap expression entry in series [2] (20ng/mL) is “did not inhibit”; in series [2] (concentrations lower than 20ng/mL), “potentiate”.
